Molecules are shown by their SMILES.

For assay [1], the system named is C57BL/6 mouse subjected to chronic restraint stress. As to the kind of experiment: Y-Maze test, spatial memory in CRS mouse. The assay is classed as in vivo. As to conditions: Y-Maze test 6 minutes (arm alteration), 10 mg/kg intraperitoneally, FIG. 4. The method, then: (§1) An 8-week-old male C57BL/6 mouse was subjected to chronic restraint stress (CRS) using a restrainer from 10 AM to 4 PM daily for 7 days. RITA (10 mg/kg) was intraperitoneally injected using a 1-ml syringe at 9:30 AM for 10 days from 3 days before the stress experience. Specifically, to measure anxiety-related behavior, an open field test was performed. The degree of anxiety was measured by observing a staying rate during a staying time in the middle in a square with a size of 40×40 cm^2 for 20 minutes. In addition, to measure spatial memory ability, a Y-Maze test was performed. The degree of spatial memory ability was measured by measuring the rate (arm alteration) entering each passage while freely moving in a Y-shaped maze space composed of three passages for 6 minutes.

Assay [2] shares this test system. As to the kind of experiment: Open field test, anxiety-related behavior in CRS mouse. The format is in vivo. The conditions noted are these: open field test 20 minutes, 10 mg/kg intraperitoneally, FIG. 3. The method, then:
as §1

In assay [3] the test system is hippocampal neural stem cells. As to the kind of experiment: Neural stem cell protection in chronic restraint stress (CRS) mouse, SOX2/Ki67 immunohistochemistry of hippocampus. The assay is classed as in vivo. The conditions noted are these: 10 mg/kg intraperitoneally for 10 days, CRS 7 days, FIG. 2. As to the method:
An 8-week-old male C57BL/6 mouse was subjected to chronic restraint stress (CRS) using a restrainer from 10 AM to 4 PM daily for 7 days. RITA (10 mg/kg) was intraperitoneally injected using a 1-ml syringe at 9:30 AM for 10 days from 3 days before the stress experience. To confirm the number of hippocampal neural stem cells in the RITA-injected mouse, the control and the stress-experiencing mice were anesthetized by injecting the neuro-anesthetic Zoletil and the muscle anesthetic Rompun to isolate brain tissue. Afterward, the brain tissue was frozen with an optimal cutting temperature compound after fixing the brain with 4% paraformaldehyde (PFA). To perform immunohistochemistry, the frozen brain was cut in the coronal plane to a thickness of 40 μm, and then a neural stem cell indicator, SOX2, and a cell proliferation indicator, Ki67 protein, were labeled with Alexa488 or Alexa555 and stained. The number of fluorescence-expressing cells in the hippocampus of the stained brain was detected using a Confocal 780 microscope (Zeiss), and the result is shown in FIG. 2. As a control, oil, which is a medium in which RITA is dissolved, was injected.

Assay [4] deals with adult hippocampal neural stem cells (HCN cells). As to the kind of experiment: Cell death assay (Hoechst 33342/PI) of stress hormone (CORT)-induced death of adult hippocampal neural stem cells. As to conditions: 50 nM RITA (3 h pre-treatment, then with 200 μM CORT), 48 hours, FIG. 1. The format is cell-based, rat. The method, then: First, adult hippocampal neural stem cells (HCN cells; hereinafter, referred to as “HCN”) were isolated from an 8-week-old female Sprague-Dawley rat (SD rat). Afterward, the isolated hippocampal neural stem cells were incubated using a serum-free medium containing Dulbecco's modified Eagle's medium (DMEM)/F-12 to which N2 and basic fibroblast growth factor (bFGF; PeproTech) were added in a 37° C. incubator. The cells were subcultured every 3 or 4 days. The subcultured neural stem cells were put into a 96-well plate at 1.5×10^5 cells/ml, 50 nM RITA was treated together with 200 μM corticosterone (CORT), and cell death was confirmed after 48 hours. Before CORT treatment, 50 nM RITA was pre-treated for 3 hours and then treated again along with CORT. For cell death assay, the cells were stained with Hoechst 33342 (Invitrogen) and propidium iodide (PI; Sigma) and photographed by a fluorescence microscope (Axiovert 40 CFL; Carl Zeiss), and the percentage of cell death was calculated by the following cell death (%) equation. Cell death (%)=(the number of PI[red]−positive cells/the number of Hoechst [blue]−positive cells)×100

For the compound `OCc1ccc(-c2ccc(-c3ccc(CO)s3)o2)s1` [RITA, 2,5-bis[5-hydroxymethyl-2-thienyl] furan], in assay [1], the “spatial memory disability caused by stress experience” value is reported as “prevented”. Further, the “anxiety disorder-related behavior caused by stress experience” value in assay [2] is given as “prevented”. For the same compound, in assay [3], the “number of cells expressing Ki67 (cell proliferation indicator) decreased by stress” value is listed as “considerably increased compared to the control” and the “number of cells expressing SOX2 (stem cell indicator) decreased by stress” value is “considerably increased compared to the control”. Also, the “death of neural stem cells caused by a stress hormone” value in assay [4] was “inhibits the death of neural stem cells”.
